Values quoted from earlier work in patent US20100120723A1, “PHARMACEUTICAL COMPOSITION COMPRISING A HOT-MELT GRANULATED LUBRICANT” (priority 2006, published 2010).

Test system: bone resorption
Settings: animal models of bone resorption

For `CCCCCN(C)CCC(O)(P(=O)(O)O)P(=O)(O)O` [Sodium ibandronate], the “potency relative to alendronate, risedronate, pamidronate and clodronate” value is listed as “many times more potent”.
